Class data for 35 compounds are collected here from US20050197350A1, “Novel quinoline, tetrahydroquinazoline, and pyrimidine derivatives and methods of treatment related to the use thereof” (TAISHO PHARMACEUTICAL CO., LTD., priority 2003, published 2005).

In the assay the test system is MCH receptors. Description: MCH receptor activity class (method not given).
Setting [1] is: activity class per percent of control at 10^-7 M or IC50.
The mark [2] stands for this setting: class by percent of control at 10^-7 M or IC50.
[3] abbreviates: class 1-3 by percent of control at 10^-7 M or IC50.
The mark [4] stands for this setting: class by percent of control at 10^−7 M or IC50.
The mark [5] stands for this setting: activity class 1-3: percent of control at 10^-7 M or IC50.
Setting [6] is: MCH receptor, class by percent of control at 10^-7 M or IC50.
Where [7] appears, read: MCH receptor activity class 1-3 (percent of control at 10^-7 M or IC50).

For the compound `COc1ccc(OC)c(CN[C@H]2CC[C@@H](Nc3cc(N(C)C)c4ccccc4n3)CC2)c1` [compound 1088], under setting [1], the class is 3 (Class 3 The value of percent of control at 10^−7 M was more than 60% or the value of IC50 was more than 200 nM.).
For `COc1ccccc1NC(=S)N[C@H]1CC[C@@H](Nc2nccc(N(C)C)n2)CC1` [compound 2263], under setting [2], the class is 3 (Class 3 The value of percent of control at 10^−7 M was more than 60% or the value of IC50 was more than 200 nM.).
On to `CN(C)c1nc(N[C@H]2CC[C@@H](NC(=O)COc3ccccc3[N+](=O)[O-])CC2)nc2c1CCCC2` [compound 549], for which, under setting [3], the class is reported as 3 (Class 3 The value of percent of control at 10^−7 M was more than 60% or the value of IC50 was more than 200 nM.).
Take `Cc1cc(N(C)C)nc(N[C@H]2CC[C@@H](NC(=O)c3ccc(Br)o3)CC2)n1` [compound 2979, 5-bromo-N-(cis-4-{[4-(dimethylamino)-6-methylpyrimidin-2-yl]amino}cyclohexyl)-2-furamide]: the class under setting [4] is 1 (Class 1: The value of percent of control at 10^−7 M was less than 40% or the value of IC50 was less than 50 nM.).
Consider `CN(C)c1cc(N[C@H]2CC[C@@H](NCC3CN(C(c4ccccc4)c4ccccc4)C3)CC2)nc2ccccc12` [compound 1462], for which the class under setting [2] is reported as 1 (Class 1: The value of percent of control at 10^−7 M was less than 40% or the value of IC50 was less than 50 nM.).
Turning to `Cc1ccc(C(=O)N[C@H]2CC[C@@H](Nc3nccc(N(C)C)n3)CC2)cc1` [compound 269], the class under setting [2] is on record as 3 (Class 3 The value of percent of control at 10^−7 M was more than 60% or the value of IC50 was more than 200 nM.).
Regarding `CN(C)c1nc(N[C@H]2CC[C@@H](CNC(=O)c3ccc(F)c(F)c3)CC2)nc2c1CCCC2` [compound 595], under setting [3], the class was 3 (Class 3 The value of percent of control at 10^−7 M was more than 60% or the value of IC50 was more than 200 nM.).
Consider `CN(C)c1nc(N[C@H]2CC[C@@H](NC(=O)c3cn(S(=O)(=O)c4ccccc4)c4ccccc34)CC2)nc2c1CCCC2` [compound 1045], for which the class under setting [1] is given as 3 (Class 3 The value of percent of control at 10^−7 M was more than 60% or the value of IC50 was more than 200 nM.).
In the case of `CN(C)c1ccnc(N[C@H]2CC[C@@H](NC(=O)c3cc(-c4ccc(Cl)cc4)oc3C(F)(F)F)CC2)n1` [compound 358], under setting [2], the class is listed as 3 (Class 3 The value of percent of control at 10^−7 M was more than 60% or the value of IC50 was more than 200 nM.).
For the compound `CN(C)c1nc(N[C@H]2CC[C@@H](NC(=O)Cc3ccc(Oc4ccccc4)cc3)CC2)nc2c1CCCC2` [compound 1004], the class under setting [1] is 2 (Class 2: The value of percent of control at 10^−7 M was from 40% to 60% or the value of IC′50 was from 50 nM to 200 nM.).
As to `CC(NC(=O)N[C@H]1CC[C@@H](Nc2nc3c(c(N(C)C)n2)CCCC3)CC1)c1cccc2ccccc12` (relative stereo) [compound 1704], the class under setting [5] was 1 (Class 1: The value of percent of control at 10^−7 M was less than 40% or the value of IC50 was less than 50 nM.).
For `CN(C)c1nc(N[C@H]2CC[C@@H](NC(=S)Nc3ccc(F)cc3Br)CC2)nc2c1CCCC2` [compound 2070], the class under setting [6] is 3 (Class 3 The value of percent of control at 10^−7 M was more than 60% or the value of IC50 was more than 200 nM.).
Consider `Cc1cccc(C(=O)N[C@H]2CC[C@@H](Nc3nccc(N(C)C)n3)CC2)c1` [compound 268, N-(cis-4-{[4-(dimethylamino)pyrimidin-2-yl]amino}cyclohexyl)-3-methylbenzamide], for which, under setting [2], the class was 2 (Class 2: The value of percent of control at 10^−7 M was from 40% to 60% or the value of IC′50 was from 50 nM to 200 nM.).
On to `CN(C)c1nc(N[C@H]2CC[C@@H](NC(=O)Nc3ccc(F)cc3[N+](=O)[O-])CC2)nc2c1CCCC2` [compound 1889], for which the class under setting [2] is listed as 3 (Class 3 The value of percent of control at 10^−7 M was more than 60% or the value of IC50 was more than 200 nM.).
With `CN(C)c1cc(N[C@H]2CC[C@@H](CNC(=O)Nc3cc(Cl)cc(Cl)c3)CC2)nc2ccccc12` [compound 2393], the class under setting [7] was 3 (Class 3 The value of percent of control at 10^−7 M was more than 60% or the value of IC50 was more than 200 nM.).
On to `CN(C)c1ccnc(NC2CCC(NC(=O)OCc3ccccc3)CC2)n1` (centres unmarked) [compound 273], for which the class under setting [2] is listed as 3 (Class 3 The value of percent of control at 10^−7 M was more than 60% or the value of IC50 was more than 200 nM.).
`CN(C)c1nc(N[C@H]2CC[C@@H](NC(=S)Nc3ccc(Cl)c(Cl)c3)CC2)nc2c1CCCC2` [compound 1937]: the class under setting [6] is given as 3 (Class 3 The value of percent of control at 10^−7 M was more than 60% or the value of IC50 was more than 200 nM.).
For `Cc1onc(-c2ccccc2)c1NC(=S)N[C@H]1CC[C@@H](Nc2nc3c(c(N(C)C)n2)CCCC3)CC1` [compound 1789], the class under setting [2] was 3 (Class 3 The value of percent of control at 10^−7 M was more than 60% or the value of IC50 was more than 200 nM.).
For the compound `Cc1ccc(C(=O)NC[C@H]2CC[C@@H](Nc3ncc(C)c(N(C)C)n3)CC2)cc1` [compound 2691], the class under setting [4] is given as 3 (Class 3 The value of percent of control at 10^−7 M was more than 60% or the value of IC50 was more than 200 nM.).
In the case of `Cc1cc(N(C)C)nc(N[C@H]2CC[C@@H](CNC(=O)c3ccc(C(F)(F)F)cc3)CC2)n1` [compound 2758], the class under setting [4] is 2 (Class 2: The value of percent of control at 10^−7 M was from 40% to 60% or the value of IC′50 was from 50 nM to 200 nM.).
As for `CN(C)c1cc(N[C@H]2CC[C@@H](NC(=O)CCC3CCCCC3)CC2)nc2ccccc12` [compound 695], the class under setting [2] is on record as 3 (Class 3 The value of percent of control at 10^−7 M was more than 60% or the value of IC50 was more than 200 nM.).
With `CN(C)c1nc(N[C@H]2CC[C@@H](NC(=O)c3cc(Br)c(Br)s3)CC2)nc2c1CCCC2` [compound 977, 4,5-dibromo-N-(cis-4-{[4-(dimethylamino)-5,6,7,8-tetrahydroquinazolin-2-yl]amino}cyclohexyl)thiophene-2-carboxamide], the class under setting [2] is reported as 2 (Class 2: The value of percent of control at 10^−7 M was from 40% to 60% or the value of IC′50 was from 50 nM to 200 nM.).
As for `Cc1ccc(C(=O)NC[C@H]2CC[C@@H](Nc3nc(C)cc(N(C)C)n3)CC2)cc1` [compound 2752], under setting [4], the class was 3 (Class 3 The value of percent of control at 10^−7 M was more than 60% or the value of IC50 was more than 200 nM.).
The same measure, in the same setting: for `Cc1cnc(N[C@H]2CC[C@@H](NC(=O)c3cccnc3Oc3cccc(Br)c3)CC2)nc1N(C)C` [compound 2894, 2-(3-bromophenoxy)-N-(cis-4-{[4-(dimethylamino)-5-methylpyrimidin-2-yl]amino}cyclohexyl)nicotinamide] the value was 1 (Class 1: The value of percent of control at 10^−7 M was less than 40% or the value of IC50 was less than 50 nM.); for `Cc1cnc(N[C@H]2CC[C@@H](NC(=O)N(C)c3ccc(F)cc3)CC2)nc1N(C)C` [compound 3026, N′-(cis-4-{[4-(dimethylamino)-5-methylpyrimidin-2-yl]amino}cyclohexyl)-N-(4-fluorophenyl)-N-methylurea], 1 (Class 1: The value of percent of control at 10^−7 M was less than 40% or the value of IC50 was less than 50 nM.).
The same measure, in the same setting: next, `Cc1cnc(N[C@H]2CC[C@@H](NC(=O)C3(c4ccc(Cl)cc4Cl)CC3)CC2)nc1N(C)C` [compound 2871]: 1 (Class 1: The value of percent of control at 10^−7 M was less than 40% or the value of IC50 was less than 50 nM.).
On to `CN(C)c1ccnc(N[C@H]2CC[C@@H](CNC(=O)c3cc(F)ccc3Cl)CC2)n1` [compound 443], for which, under setting [3], the class is on record as 3 (Class 3 The value of percent of control at 10^−7 M was more than 60% or the value of IC50 was more than 200 nM.).
For `CN(C)c1nc(N[C@H]2CC[C@@H](CNC(=O)c3ccc(F)c(Cl)c3F)CC2)nc2c1CCCC2` [compound 624], the class under setting [2] was 3 (Class 3 The value of percent of control at 10^−7 M was more than 60% or the value of IC50 was more than 200 nM.).
Consider `COC(=O)c1cccc(NC(=S)N[C@H]2CC[C@@H](Nc3nccc(N(C)C)n3)CC2)c1` [compound 2327], for which the class under setting [7] is listed as 3 (Class 3 The value of percent of control at 10^−7 M was more than 60% or the value of IC50 was more than 200 nM.).
On to `Cc1cccc(CNC[C@H]2CC[C@@H](Nc3cc(N(C)C)c4ccccc4n3)CC2)c1` [compound 1184], for which the class under setting [2] is on record as 3 (Class 3 The value of percent of control at 10^−7 M was more than 60% or the value of IC50 was more than 200 nM.).
In the case of `Cc1ccc(NC(=S)N[C@H]2CC[C@@H](Nc3nccc(N(C)C)n3)CC2)c(Br)c1` [compound 2323], the class under setting [7] was 3 (Class 3 The value of percent of control at 10^−7 M was more than 60% or the value of IC50 was more than 200 nM.).
For the compound `CN(C)c1nc(N[C@H]2CC[C@@H](CNC(=O)c3cc(C(C)(C)C)nn3C)CC2)nc2c1CCCC2` [compound 648], the class under setting [2] is reported as 3 (Class 3 The value of percent of control at 10^−7 M was more than 60% or the value of IC50 was more than 200 nM.).
Turning to `CCOC(=O)N[C@H]1CC[C@@H](Nc2nc3c(c(N(C)C)n2)CCCC3)CC1` [compound 1587], the class under setting [5] is on record as 3 (Class 3 The value of percent of control at 10^−7 M was more than 60% or the value of IC50 was more than 200 nM.).
Still for that read-out and setting: next, `CN(C)c1nc(N[C@H]2CC[C@@H](NC(=O)Nc3ccccc3Cl)CC2)nc2c1CCCC2` [compound 1659]: 3 (Class 3 The value of percent of control at 10^−7 M was more than 60% or the value of IC50 was more than 200 nM.).
`CN(C)c1ccnc(N[C@H]2CC[C@@H](NC(=O)c3cccc(I)c3)CC2)n1` [compound 276, N-(cis-4-{[4-(dimethylamino)pyrimidin-2-yl]amino}cyclohexyl)-3-iodobenzamide]: the class under setting [2] is on record as 1 (Class 1: The value of percent of control at 10^−7 M was less than 40% or the value of IC50 was less than 50 nM.).
